Assay results taken from ChEMBL document CHEMBL4325913, “Norharmane as a potential chemical entity for development of anticancer drugs” (Eur J Med Chem, 2019).
Values belong to the molecule of their own block, whether it stands above or below them.

Columns and labels:
[1] = biological target: NAD-dependent protein deacylase sirtuin-5, mitochondrial (Homo sapiens) (UniProt Q9NXA8); assay: Inhibition of SIRT5 (unknown origin) at 30 uM relative to control
[2] = biological target: NAD-dependent protein deacylase sirtuin-5, mitochondrial (Homo sapiens) (UniProt Q9NXA8); assay: Inhibition of SIRT5 (unknown origin) at 100 uM relative to control
[3] = test system: SMMC-7721; assay: Antiproliferative activity against human SMMC7721 cells after 48 hrs by MTT assay; type: functional, cell-based; details: SMMC-7721, 48 h
[4] = test system: HepG2; assay: Antiproliferative activity against human HepG2 cells at 4 uM after 48 hrs by MTT assay relative to control; type: functional
[5] = test system: HepG2; assay: Antiproliferative activity against human HepG2 cells at 5 uM after 48 hrs by MTT assay relative to control; type: functional
[6] = test system: HGC-27; assay: Cytotoxicity against human HGC27 cells assessed as reduction in cell viability after 48 hrs by MTT assay; type: functional, cell-based; details: HGC-27, 48 h
[7] = test system: Lewis lung carcinoma cell line; assay: Antitumor activity against mouse LLC cells implanted in mouse assessed as tumor growth inhibition at 7.5 mg/kg, ip qd treated for 7 consecutive days starting from 24 hrs post tumor inoculum relative to control; type: functional; details: read-out: TGI
[8] = test system: CCRF S-180; assay: Antitumor activity against mouse S180 cells implanted in mouse assessed as tumor growth inhibition at 7.5 mg/kg, ip qd treated for 7 consecutive days starting from 24 hrs post tumor inoculum relative to control; type: functional; details: CCRF S-180, ip, read-out: TGI

Chain of NAD-dependent protein deacylase sirtuin-5, mitochondrial (Homo sapiens) (Q9NXA8 37-310 limits assumed): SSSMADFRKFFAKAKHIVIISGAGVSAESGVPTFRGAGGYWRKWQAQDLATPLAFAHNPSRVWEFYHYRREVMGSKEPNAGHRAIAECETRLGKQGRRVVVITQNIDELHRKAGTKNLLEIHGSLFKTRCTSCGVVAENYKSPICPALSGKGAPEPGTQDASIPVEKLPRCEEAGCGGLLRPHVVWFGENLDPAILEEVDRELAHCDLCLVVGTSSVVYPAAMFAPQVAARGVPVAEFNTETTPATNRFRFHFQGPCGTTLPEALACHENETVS

inhibition [1]: 35%
inhibition [2]: 52%
Structure (SMILES): O=C(NCCn1c2ccccc2c2ccncc21)Nc1ccc(C(=O)O)cc1

IC50 [3]: 6.97 µM
Structure (SMILES): Cc1nc(C(=O)NCCCCCNC(=O)c2ccccc2O)cc2c1[nH]c1ccccc12

Structure (SMILES): CCCN(Cc1ccc(C(=O)NO)cc1)C(=O)c1cc2c([nH]c3ccccc32)c(-c2ccc(OC)cc2)n1
Activity [4]: 61.8%
Activity [5]: 34.5%

Structure (SMILES): COc1cc(-c2nc(Cn3cc(CN4C(=O)c5ccc(C)cc5C4=O)nn3)cc3c2[nH]c2ccccc23)cc(OC)c1OC
IC50 [6]: 5.44 µM
inhibition in vivo at 7.5 mg/kg [7]: 46.9%
inhibition in vivo at 7.5 mg/kg [8]: 40%
